These results are taken from publication PMC10460880, “Cathepsin K‐Activated Probe for Fluoro‐Photoacoustic Imaging of Early Osteolytic Metastasis” (Advanced Science, 2023).

The subject of data set [1] is OCs. As to the kind of experiment: Cell selectivity experiment, osteoclasts. The data set is classed as cell-based. Conditions: n = 3.
For data set [2], the system named is MDA-MB-231/Luc-induced osteolytic metastasis. Put plainly: Real-time NIR fluorescence and PA imaging of osteolytic metastasis. The data set is classed as in vivo, BALB/c nude mice. Conditions: i.v. 50 μM, 200 μL; imaged 0-24 h; n = 3. Here is the method: page 5: PS. RAW 264.7 cells and BMMs were maintained in an atmosphere of 5% CO2 and 95% humidified air at 37 °C. The medium was changed every day. Cell cytotoxicity assay. MDA-MB-231/Luc and RAW 264.7 cells were seeded in 96-well plates (5×10^3 cells per well) for 24 h and then incubated with CTSK-APPA or CTSK-APP (5, 10, 20, 50 μM) or saline for 24 h. The medium was removed and cells were incubated with CCK-8 (0.5 mg/mL) for another 1 h. The absorbance of the mixture at 450 nm was measured by using a microplate reader. Cell viability was expressed by the ratio of the absorbance of the cells incubated with the probes to that of the cells incubated with culture medium only. In vitro osteoclast differentiation. Bone marrow-derived macrophages were isolated from the femurs and tibias of 4-week-old C57BL/6J mice and cultured in a complete medium containing M-CSF (30 ng/mL) for 4 days. […] Fluorescence images were captured by using the IVIS Spectrum imaging system with excitation at 660 ± 10 nm and emission at 710 ± 10 nm. […] The bone marrow toxicity of CTSK-APPA and CTSK-APP was assessed by blood analyses in mice. […] The red blood count (RBC) and white blood count (WBC) were further measured. […] The supernatants containing excreted probes were quantified by using a UV-vis absorption spectrometer. […]

The test system of data set [3] is BMMs, MDA-MB-231 cells, MCF-7 cells, neutrophils. Put plainly: Cell selectivity experiment, other cells. The format is cell-based. Conditions: MDA-MB-231, MCF-7, neutrophils, n = 3.
The nature of data set [4]: Renal clearance efficiency study. The format is in vivo, BALB/c nude mice. Conditions: mice, i.v. 50 μM, 200 μL; urine, UV absorbance at 615 nm; n = 3. As to the method: Bone marrow toxicity analysis. The bone marrow toxicity of CTSK-APPA and CTSK-APP was assessed by blood analyses in mice. SPF grade 4-week-old BALB/c nude mice were intravenously injected with CTSK-APPA(50 μM, 200 μL) or saline (200 μL). The blood samples were collected in anticoagulant tubes at 24 h post-injection and stored at 4°C. The red blood count (RBC) and white blood count (WBC) were further measured.
Renal clearance efficiency studies. SPF grade 4-week-old BALB/c nude mice were intravenously injected with CTSK-APPA or CTSK-APP (50 μM, 200 μL) and placed in metabolic cages. The urine was collected at 3, 6, and 24 h post-injection, and then centrifuged at 5000 r.p.m. for 5 min. The supernatants containing excreted probes were quantified by using a UV-vis absorption spectrometer. […]
In vivo Bioluminescence, DR, CT, and MR imaging. […] Then BL imaging was recorded on an IVIS Spectrum imaging system at 10 min post-injection under anesthesia using isoflurane. All data were analyzed with the Living Image software. DR, CT, and MR imaging were recorded on an IVIS Spectrum imaging system, a single-photon emission computed tomography imaging system, and a preclinical magnetic resonance solution system, respectively.
Real-time tumor imaging. […] Fluorescence and PA images were acquired at 0, 1, 2, 4, 8, 12, and 24 h post-injection. […]
Histology. […] Images were captured by using a fluorescence microscope. […]

As for Cbz‐Leu‐Arg‐OH [CTSK-APPA], the “NIR fluorescence after incubation with OCs” value in data set [1] is reported as “strong NIR fluorescence signals”. Besides, the “time of maximum NIR fluorescence and PA signal post-injection” value in data set [2] was found to be 4 h. Moreover, in data set [3], the “NIR fluorescence activation by other cells” value is reported as “did not induce NIR fluorescence activation”. Further, the “renal clearance efficiency 24 h post-injection” value in data set [4] was found to be 58.4%.
